In this experiment the target is T1, wtPTE (Brevundimonas diminuta, UniProt P0A434).
T1 construct: gene opd; synthetic gene in pET-Strep vector, expressed in E. coli BL21 (DE3) with GroEL/ES, ZnCl2 in medium; clarified lysate
The experiment is described as follows: absorbance at […] nm, p-nitrophenolate release, initial rate in clarified lysate. Type of experiment: biochemical. Conditions: 180 uM substrate; Tris-HCl pH 7.5 lysis buffer, 0.1% Triton X-100; native activity.

The structures appear in SMILES notation.

For the compound `CCOP(=O)(OCC)Oc1ccc([N+](=O)[O-])cc1` [paraoxon], the “absorbance at 405 nm, p-nitrophenolate release, initial rate in clarified lysate” value is “wtPTE catalyzes the hydrolysis of paraoxon (PTE activity)”.

Values taken from article PMC5065130, “Functional Trade-Offs in Promiscuous Enzymes Cannot Be Explained by Intrinsic Mutational Robustness of the Native Activity” (PLoS Genetics, 2016).
